The values that follow come from patent US5416081A, “Cephalosporin compounds” (Lucky Limited, priority 1992, dated 1995).

Converted amounts (≈) assume the structure as drawn. Like-named read-outs stand apart in the source and are kept apart here.

What all share (format): cell-based
One experiment deals with S. aureus/77. In words: MIC against standard strain by two-fold agar dilution, S. aureus/77. The following applies: Staphylococcus aureus. The method, then:
(§1) These MIC values were taken by employing a two-fold dilution method: that is, two-fold serial dilutions of each of the test compounds were made and dispersed in a Muller-Hinton agar medium; 2 μl of the standard test strain which had the 10^7 CFU(Colony Forming Unit) per ml was inoculated on the medium; and these were incubated at 37° C. for 20 hours.

The test system of the next experiment is P. aeruginosa/6065Y. In words: MIC against standard strain by two-fold agar dilution, P. aeruginosa/6065Y. The following applies: Pseudomonas aeruginosa. The method, then:
as §1
On the technique in general: In agar dilution the substance is mixed into plates at graded concentrations.

The test system of a further experiment is E. coli/3190Y. The experiment is described as follows: MIC against standard strain by two-fold agar dilution, E. coli/3190Y. The following applies: Escherichia coli. As to the method:
as §1

The next experiment concerns E. coli TEM1/1193E. The experiment is described as follows: MIC against standard strain by two-fold agar dilution, E. coli TEM1/1193E. The conditions noted are these: Escherichia coli, 20 h. As to the method: as §1
A further experiment has as its system S. marcescens/1826E. In words: MIC against standard strain by two-fold agar dilution, S. marcescens/1826E. The following applies: Serratia marcescens. As to the method: as §1
The test system of the next experiment is K. aerogenes/1776E. In words: MIC against standard strain by two-fold agar dilution, K. aerogenes/1776E. The conditions noted are these: Klebsiella aerogenes. The method, then: as §1
For a further experiment, the system named is S. typhimunium/14028A. The experiment is described as follows: MIC against standard strain by two-fold agar dilution, S. typhimunium/14028A. As to the method:
as §1

The subject of another experiment is S. aureus/6538pA. The experiment is described as follows: MIC against standard strain by two-fold agar dilution, S. aureus/6538pA. The following applies: Staphylococcus aureus. As to the method: as §1
The subject of another experiment is P. aeruginosa/10145. In words: MIC against standard strain by two-fold agar dilution, P. aeruginosa/10145. The following applies: Pseudomonas aeruginosa. The method, then: as §1
The subject of the next experiment is A. calcoaceticus /15473A. The experiment is described as follows: MIC against standard strain by two-fold agar dilution, A. calcoaceticus /15473A. The conditions noted are these: Acinetobacter calcoaceticus. As to the method:
as §1

The next experiment relates to E. cloacae/1194E. The experiment is described as follows: MIC against standard strain by two-fold agar dilution, E. cloacae/1194E. The conditions noted are these: Enterobacter cloacae. The method, then:
as §1

Another experiment deals with P. aeruginosa/1912E. In words: MIC against standard strain by two-fold agar dilution, P. aeruginosa/1912E. The following applies: Pseudomonas aeruginosa. The method, then:
as §1

In another experiment the test system is E. coli TEM9/2639E. In words: MIC against standard strain by two-fold agar dilution, E. coli TEM9/2639E. The conditions noted are these: Escherichia coli, 20 h. The method, then:
as §1

For another experiment, the system named is E. coli/10536. The experiment is described as follows: MIC against standard strain by two-fold agar dilution, E. coli/10536. The following applies: Escherichia coli. As to the method: as §1
The next experiment has as its system S. aureus/giorigio. The experiment is described as follows: MIC against standard strain by two-fold agar dilution, S. aureus/giorigio. The following applies: Staphylococcus aureus. The method, then:
as §1

The next experiment has as its system E. coli TEM5/3739E. In words: MIC against standard strain by two-fold agar dilution, E. coli TEM5/3739E. The following applies: Escherichia coli, 20 h. As to the method: as §1
The mark [1] stands for this setting: S. aureus/77, Muller-Hinton agar, 37° C., 20 hours, read-out: MIC.
Where [2] appears, read: P. aeruginosa/6065Y, Muller-Hinton agar, 37° C., 20 hours, read-out: MIC.
Setting [3] is: E. coli/3190Y, Muller-Hinton agar, 37° C., 20 hours, read-out: MIC.
[4] abbreviates: S. marcescens/1826E, Muller-Hinton agar, 37° C., 20 hours, read-out: MIC.
Setting [5] is: K. aerogenes/1776E, Muller-Hinton agar, 37° C., 20 hours, read-out: MIC.
[6] abbreviates: S. typhimunium/14028A, Muller-Hinton agar, 37° C., 20 hours, read-out: MIC.
[7] abbreviates: S. aureus/6538pA, Muller-Hinton agar, 37° C., 20 hours, read-out: MIC.
Where [8] appears, read: P. aeruginosa/10145, Muller-Hinton agar, 37° C., 20 hours, read-out: MIC.
Where [9] appears, read: A. calcoaceticus /15473A, Muller-Hinton agar, 37° C., 20 hours, read-out: MIC.
Setting [10] is: E. cloacae/1194E, Muller-Hinton agar, 37° C., 20 hours, read-out: MIC.
Where [11] appears, read: P. aeruginosa/1912E, Muller-Hinton agar, 37° C., 20 hours, read-out: MIC.
Where [12] appears, read: E. coli/10536, Muller-Hinton agar, 37° C., 20 hours, read-out: MIC.
Setting [13] is: S. aureus/giorigio, Muller-Hinton agar, 37° C., 20 hours, read-out: MIC.

For orientation: MIC means the lowest concentration that inhibits growth of the organism.

As to `Nc1nc(/C(=N/OC2(C(=O)O)CCCC2)C(=O)NC2C(=O)N3C(C(=O)[O-])=C(CSc4nc(N)c5c([n+]4N)CCC5)CSC23)cs1` (stereo not shown) [Compound I-11, 7-[(Z)-2-(2-aminothiazol-4-yl)-2-(1-carboxycyclopent-1-oxyimino)acetamido]-3-(1,4-diamino-1,5,6,7-tetrahydro-cyclopentapyrimidinium-2-yl)thiomethyl-3-cephem-4-carboxylate], the MIC with S. aureus/77 (setting [1]) was 16 µg/mL (≈ 23.7 µM); in the experiment on P. aeruginosa/6065Y (setting [2]), 8 µg/mL (≈ 11.8 µM); in the experiment with E. coli/3190Y (setting [3]) it was at most 0.008 µg/mL; in the experiment on E. coli TEM1/1193E, 0.13 µg/mL (≈ 0.192 µM); with S. marcescens/1826E (setting [4]), 0.25 µg/mL (≈ 0.37 µM); in the experiment with K. aerogenes/1776E (setting [5]), 0.13 µg/mL (≈ 0.192 µM). Also, the MIC with S. typhimunium/14028A (setting [6]) is 0.25 µg/mL (≈ 0.37 µM); in the experiment with S. aureus/6538pA (setting [7]), 2 µg/mL (≈ 2.96 µM); in the experiment on P. aeruginosa/10145 (setting [8]) it was 1 µg/mL (≈ 1.48 µM); in the experiment on A. calcoaceticus /15473A (setting [9]) it was 1 µg/mL (≈ 1.48 µM); with E. cloacae/1194E (setting [10]), 4 µg/mL (≈ 5.92 µM); in the experiment on P. aeruginosa/1912E (setting [11]), 0.5 µg/mL (≈ 0.74 µM). Further, the MIC is 2 µg/mL (≈ 2.96 µM) against E. coli TEM9/2639E, 0.016 µg/mL (≈ 0.0237 µM) with E. coli/10536 (setting [12]), 1 µg/mL (≈ 1.48 µM) in the experiment with S. aureus/giorigio (setting [13]) and 0.25 µg/mL (≈ 0.37 µM) against E. coli TEM5/3739E.
In the case of `CC(C)(O/N=C(\C(=O)NC1C(=O)N2C(C(=O)[O-])=C(CSc3nc(N)c4c([n+]3N)CCC4)CSC12)c1csc(N)n1)C(=O)O` (stereo not shown) [Compound I-1, 7-[(Z)-2-(2-aminothiazol-4-yl)-2-(2-carboxyprop-2-oxyimino)acetamido]-3-(1,4-diamino-1,5,6,7-tetrahydro-cyclopentapyrimidinium-2-yl)thiomethyl-3-cephem-4-carboxylate], the minimal inhibitory concentration (MIC) stood at 4 µg/mL (≈ 6.16 µM) in the experiment with S. aureus/77 (setting [1]); 4 µg/mL (≈ 6.16 µM) in the experiment with P. aeruginosa/6065Y (setting [2]); 0.016 µg/mL (≈ 0.0246 µM) with E. coli/3190Y (setting [3]); 0.063 µg/mL (≈ 0.097 µM) against E. coli TEM1/1193E; 0.25 µg/mL (≈ 0.385 µM) with S. marcescens/1826E (setting [4]); 0.13 µg/mL (≈ 0.2 µM) in the experiment on K. aerogenes/1776E (setting [5]). Besides, the minimal inhibitory concentration (MIC) in the experiment with S. typhimunium/14028A (setting [6]) was 0.13 µg/mL (≈ 0.2 µM); against S. aureus/6538pA (20 h) it was 2 µg/mL (≈ 3.08 µM); with P. aeruginosa/10145 (setting [8]) it was 1 µg/mL (≈ 1.54 µM); in the experiment with A. calcoaceticus /15473A (setting [9]), 2 µg/mL (≈ 3.08 µM); in the experiment on E. cloacae/1194E (setting [10]) it was 4 µg/mL (≈ 6.16 µM); with P. aeruginosa/1912E (setting [11]), 0.5 µg/mL (≈ 0.77 µM). The minimum inhibitory concentration (MIC) was determined as 2 µg/mL (≈ 3.08 µM) against E. coli TEM9/2639E, 0.063 µg/mL (≈ 0.097 µM) against E. coli/10536 (20 h), 1 µg/mL (≈ 1.54 µM) against S. aureus/giorigio (20 h) and 0.25 µg/mL (≈ 0.385 µM) against E. coli TEM5/3739E.
For the molecule `CC(C)(O/N=C(\C(=O)N[C@@H]1C(=O)N2C(C(=O)[O-])=C(C[n+]3ccccc3)CS[C@H]12)c1csc(N)n1)C(=O)O` [ceftazidime, Ceftazidime, reference compound], the MIC in the experiment with S. aureus/77 (20 h) was 32 µg/mL (≈ 58.5 µM); against P. aeruginosa/6065Y (20 h), 32 µg/mL (≈ 58.5 µM); with E. coli/3190Y (20 h), 0.031 µg/mL (≈ 0.0567 µM); in the experiment on E. coli TEM1/1193E it was 0.28 µg/mL (≈ 0.512 µM); against S. marcescens/1826E (20 h), 0.25 µg/mL (≈ 0.457 µM); in the experiment with K. aerogenes/1776E (20 h) it was 0.25 µg/mL (≈ 0.457 µM). The MIC in the experiment with S. typhimunium/14028A (20 h) was 0.25 µg/mL (≈ 0.457 µM); in the experiment with S. aureus/6538pA (20 h), 16 µg/mL (≈ 29.3 µM); in the experiment with P. aeruginosa/10145 (20 h), 2 µg/mL (≈ 3.66 µM); in the experiment with A. calcoaceticus /15473A (20 h), 2 µg/mL (≈ 3.66 µM); against E. cloacae/1194E (20 h), 64 µg/mL (≈ 117 µM); with P. aeruginosa/1912E (20 h), 1 µg/mL (≈ 1.83 µM). In addition, the minimal inhibitory concentration (MIC) was above 128 µg/mL against E. coli TEM9/2639E, 0.063 µg/mL (≈ 0.115 µM) with E. coli/10536 (20 h), 4 µg/mL (≈ 7.32 µM) with S. aureus/giorigio (20 h) and 8 µg/mL (≈ 14.6 µM) against E. coli TEM5/3739E.
As to `C[C@H](O/N=C(\C(=O)NC1C(=O)N2C(C(=O)[O-])=C(CSc3nc(N)c4c([n+]3C)CCC4)CSC12)c1csc(N)n1)C(=O)O` (stereo partly drawn) [I-6(S)], the MIC came out at 4 µg/mL (≈ 6.3 µM) in the experiment with S. aureus/77 (setting [1]); 4 µg/mL (≈ 6.3 µM) in the experiment on P. aeruginosa/6065Y (setting [2]); 0.063 µg/mL (≈ 0.0993 µM) with E. coli/3190Y (setting [3]); 0.13 µg/mL (≈ 0.205 µM) in the experiment with E. coli TEM1/1193E; 0.25 µg/mL (≈ 0.394 µM) with S. marcescens/1826E (setting [4]); 0.13 µg/mL (≈ 0.205 µM) with K. aerogenes/1776E (setting [5]). Moreover, the MIC in the experiment on S. typhimunium/14028A (setting [6]) is 0.25 µg/mL (≈ 0.394 µM); in the experiment on S. aureus/6538pA (setting [7]), 4 µg/mL (≈ 6.3 µM); in the experiment on P. aeruginosa/10145 (setting [8]), 2 µg/mL (≈ 3.15 µM); in the experiment with A. calcoaceticus /15473A (setting [9]), 4 µg/mL (≈ 6.3 µM); in the experiment with E. cloacae/1194E (setting [10]), 4 µg/mL (≈ 6.3 µM); with P. aeruginosa/1912E (setting [11]) it was 1 µg/mL (≈ 1.58 µM). Also, the MIC in the experiment on E. coli TEM9/2639E was 4 µg/mL (≈ 6.3 µM); in the experiment on E. coli/10536 (setting [12]), 0.016 µg/mL (≈ 0.0252 µM); in the experiment with S. aureus/giorigio (setting [13]), 2 µg/mL (≈ 3.15 µM); in the experiment with E. coli TEM5/3739E, 1 µg/mL (≈ 1.58 µM).
